One data set has as its system DU145 tumors. The data set can be described thus: Prostate cancer xenograft model. The format is in vivo, nude mice. As to the method: FIG. 12A-12E show the efficacy of Compound lin a prostate cancer xenograft model (DU145). A) In vitro potency of Compound 1 in DU145 cells as evaluated by ATPlite 1Step™ Perkin Elmer (performed by NTRC Oncolines). B) DU145 cells were implanted subcutaneously in nude mice and tumors were allowed to grow to a volume of 210 mm^3 followed by randomization of animals into three (3) groups (vehicle control, 75 mg/kg, 150 mg/kg Compound 1) with 12 animals per group. A Compound 1 solid dispersion was prepared prior to each dosing and administered by oral gavage two times a day (BID). Mean tumor volume of each group over time and the growth of tumor in each individual animal was graphed. For each individual animal of vehicle group TGI (%) was calculated based on the tumor growth inhibition of individual tumor at each given day of the study compared to the average of the group for that given day of the study. P-values were calculated using two-tailed distribution and two-sample equal variance (homoscedastic) for each group treated with Compound 1 for each given day of the study in reference to vehicle control. NS p>0.05; *p≤0.05; **p≤0.01; ***p p≤0.001; **** p≤0.0001. C) Plasma and tumor tissues from vehicle (n=11), 75 mg/kg (n=12), and 150 mg/kg (n=12) groups were harvested at the end of the study. The concentration of Compound lin the plasma or tumor tissue was plotted as a column plot (Average t SEM) or Scatter Plot with Median. D) Tumor tissues from vehicle (n=12), 75 mg/kg (n=12) and 150 mg/kg (n=12) groups were harvested at the end of the study when each animal was sacrificed. The level of two biomarkers, pHH3 and CCNB1 in each tissue was measured and graphed as the Min-to-Max plot and scatter plot of the level of each biomarker. The line in the scatter plot indicates the group mean. E) Body weight of each individual animal was measured on days 0, 2, 5, 7, 9, 12, 14, 16, 19, 21, 23, and 26 and graphed using Graphpad Prism.
Anti-tumor efficacy of Compound 1 was evaluated against three (3) different preclinical oncology mice models of colorectal cancer, prostate cancer, and lung adenocarcinoma (see Table 5 below). For this purpose, an oral formulation of Compound 1 was used.
DU145 is an epithelial cell carcinoma derived from the metastatic site (brain). DU145 cells were implanted subcutaneously in nude mice and tumors were allowed to grow to an average volume of 106 mm^3 followed by randomization into three (3) groups consisting of vehicle control, 75 mg/kg and 150 mg/kg Compound 1 (12 animals per group). A Compound 1 solid dispersion was administered by oral gavage two times a day (BID). All animals, except one animal from vehicle group, survived throughout the 26 days of the study. Any animal that left the study prior to Day 26 was eliminated from all calculations. The percentage of tumor growth inhibition (TGI %) was calculated for each individual tumor. The mean tumor volume of each group over time and the growth of tumor in each individual animal is plotted below. The percentage of tumor growth inhibition (TGI %) was calculated for each individual animal.

Data set [1] can be described thus: Blood brain barrier permeability (PVDF membrane coated with porcine brain polar lipid extract). The format is in vitro ADME. As to the method: Preparation of Donor Solution a) 0.2 mM working solution was prepared by diluting 10 mM stock solution with DMSO. b) 10 μM donor solution (5% DMSO) was prepared by diluting 20 μL of working solution with 380 μL PBS. 2) 150 μL of 10 μM donor solutions to each well of the donor plate, whose PVDF membrane was precoated with 5 μL of 1% brain polar lipid extract (Porcine)/dodecane mixture. Duplicates were prepared. 3) 300 μL of PBS was added to each well of the PTFE acceptor plate. 4) The donor plate and acceptor plate were combined together and incubated for 4h at room temperature with shaking at 300 rpm. 5) Preparation of TO sample: 20 μL donor solution was transferred to new well followed by the addition of 250 μL PBS (DF: 13.5), 130 μL ACN (containing internal standard) as TO sample. 6) Preparation of acceptor sample: The plate was removed from incubator. 270 μL solution was transferred from each acceptor well and mixed with 130 μL ACN (containing internal standard) as acceptor sample. 7) Preparation of donor sample: […] was transferred from each donor well and mixed with 250 μL PBS (DF: 13.5), 130 μL ACN (containing internal standard) as donor sample. 8) Acceptor samples and donor samples were all analyzed by LC/MS/MS.

In the next data set the test system is HCT116 cells. The data set can be described thus: Spindle assembly checkpoint activation, flow cytometry. Conditions: 300 nM; FIG. 6. Type of data set: cell-based. As to the method:
• 1. Hct116 were grown in DMEM with 10% FBS and 1% Penicillin/Streptomycin. • 2. Cells were plated into 6 well dishes at indicated cell numbers below (i.e. plate 1=300 k cells per well) and treatment started later the same day. Asynchronous (Asynch) control cells (Plate 1 were collected 1 day after plating. Compound 1 and Nocodazole were both 300 nM, CDK1i Ro-3306 10 μM, Aurora Bi (ABi) Hesperadin 50 μM. • 3. Cells were treated with Compound 1 or Noc for 20 hours then sequentially without changing media they were treated with CDK1i or ABi for 4 more hours. Alternatively, cells were treated with Compound 1 or Noc for 20 h then washed twice with warm media and grown in fresh media for 4 hours to allow passage through mitosis into G1 as diploid cells. • 4. Note that plate 4 treatments were in general extremely toxic to cells or inconclusive.
• 1. Collected all media and cells into the same conical tube. Centrifuged cells at 1000×g for 3 min. • 2. Aspirated off supernatant, washed with PBS. • 3. Centrifuged cells as above. • 4. Resuspended cells in cold 400 μl and while gently vortexing added 1 mL cold 100% ethanol slowly dropwise (fixes and permeabilizes) • 5. Stored at 4 degrees C. for at a minimum of 1 hour, or up to one week. • 6. […] Analyzed data with FlowJo 10 software and made graphs with GraphPad Prism.
Background: A flow cytometer gives signals particle by particle.

This note sets out measurements from patent US20240342138A1, “MICROTUBULE TARGETING AGENTS” (BPGbio, Inc., priority 2023, published 2024).

On to `COc1ccccc1-c1nc(CNC(=O)c2ccccc2OC(F)F)n[nH]1` [Compound 1, 2-(difluoromethoxy)-N-[[5-(2-methoxyphenyl)-1H-1,2,4-triazol-3-yl]methyl]benzamide], for which the “TGI (%)” value with DU145 tumors (75 mg/kg BID oral, day 26) was found to be 22%. Also, in the data set on DU145 tumors (75 mg/kg to 150 mg/kg, FIG. 12C), the “Level of the drug in the plasma and tumor tissue” value was “dose-dependent increase”. For the same compound, the “Maximum TGI (%), end of the study” value with DU145 tumors (150 mg/kg BID oral (b152 prints 150 mg/g), day 26) is reported as 38%. For the same compound, the Body weight result with DU145 tumors (26 days, FIG. 12E) is listed as “no body weight loss related to the drug”. In addition, in the data set on DU145 tumors (tumor tissue, FIG. 12D), the “Level of biomarkers CCNB1 and pHH3” value is listed as “increase”. The Permeability entry in data set [1] (10 μM, 4 h) is “highly permeable and High”. In data set [1] (PAMPA, read-out: Mean Pe), the Papp at 4 h, 10 μM stood at 6.76 ×10⁻⁶ cm/s. The compound further registered a recovery at 4 h, 10 μM in data set [1] (pig, not told) of 85.8%. Also, the “Spindle assembly checkpoint activation, mechanism” value in the data set with HCT116 cells was “a mechanism at or before microtubule-kinetochore attachment in M phase of the cell cycle”.
